Experimental data as given in the NIST ThermoML archive (doi:10.1016/j.tca.2004.11.022).

Tests used:
[1] = molar heat capacity at constant pressure; xn = mol fraction of the nth substance listed; conditions: 101 kPa, Liquid, Small sample (50 mg) DSC
[2] = xn = mol fraction of the nth substance listed; conditions: 101 kPa, Liquid; for mass density: Vibrating tube method; for speed of sound: Pulse-echo method

CCCCCCCCC [nonane] + COC(=O)OC
Conditions	mass density [kg/m3]	molar heat capacity at constant pressure [J/K/mol]	speed of sound [m/s]
[1], 288.15 K, x2 = 0.05262	–	273.59	–
[1], 288.15 K, x2 = 0.1012	–	267.97	–
[1], 288.15 K, x2 = 0.1514	–	262.27	–
[1], 288.15 K, x2 = 0.2001	–	256.97	–
[1], 288.15 K, x2 = 0.297	–	247.1	–
[1], 288.15 K, x2 = 0.4018	–	237.24	–
[1], 288.15 K, x2 = 0.452	–	232.75	–
[1], 288.15 K, x2 = 0.5014	–	228.4	–
[1], 288.15 K, x2 = 0.5514	–	223.85	–
[1], 288.15 K, x2 = 0.6024	–	218.72	–
[1], 288.15 K, x2 = 0.6477	–	213.45	–
[1], 288.15 K, x2 = 0.6978	–	206.69	–
[1], 288.15 K, x2 = 0.7944	–	191.68	–
[1], 288.15 K, x2 = 0.845	–	183.74	–
[1], 288.15 K, x2 = 0.9016	–	175.65	–
[1], 288.15 K, x2 = 0.9486	–	169.8	–
[1], 298.15 K, x2 = 0.05262	–	277.51	–
[1], 298.15 K, x2 = 0.1012	–	271.68	–
[1], 298.15 K, x2 = 0.1514	–	265.73	–
[1], 298.15 K, x2 = 0.2001	–	260.11	–
[1], 298.15 K, x2 = 0.297	–	249.53	–
[1], 298.15 K, x2 = 0.4018	–	238.51	–
[1], 298.15 K, x2 = 0.452	–	233.42	–
[1], 298.15 K, x2 = 0.5014	–	228.22	–
[1], 298.15 K, x2 = 0.5514	–	222.78	–
[1], 298.15 K, x2 = 0.6024	–	217.1	–
[1], 298.15 K, x2 = 0.6477	–	211.64	–
[1], 298.15 K, x2 = 0.6978	–	205.13	–
[1], 298.15 K, x2 = 0.7944	–	191.78	–
[1], 298.15 K, x2 = 0.845	–	184.48	–
[1], 298.15 K, x2 = 0.9016	–	176.75	–
[1], 298.15 K, x2 = 0.9486	–	170.87	–
[1], 308.15 K, x2 = 0.05262	–	281.91	–
[1], 308.15 K, x2 = 0.1012	–	275.81	–
[1], 308.15 K, x2 = 0.1514	–	269.66	–
[1], 308.15 K, x2 = 0.2001	–	263.87	–
[1], 308.15 K, x2 = 0.297	–	252.77	–
[1], 308.15 K, x2 = 0.4018	–	241.06	–
[1], 308.15 K, x2 = 0.452	–	235.55	–
[1], 308.15 K, x2 = 0.5014	–	230.02	–
[1], 308.15 K, x2 = 0.5514	–	224.27	–
[1], 308.15 K, x2 = 0.6024	–	218.19	–
[1], 308.15 K, x2 = 0.6477	–	212.66	–
[1], 308.15 K, x2 = 0.6978	–	206.01	–
[1], 308.15 K, x2 = 0.7944	–	192.97	–
[1], 308.15 K, x2 = 0.845	–	185.93	–
[1], 308.15 K, x2 = 0.9016	–	178.33	–
[1], 308.15 K, x2 = 0.9486	–	172.4	–
[2], 288.15 K, x2 = 0.05335	729.39	–	–
[2], 288.15 K, x2 = 0.1009	736.94	–	–
[2], 288.15 K, x2 = 0.1998	754.47	–	–
[2], 288.15 K, x2 = 0.2963	774.22	–	–
[2], 288.15 K, x2 = 0.3965	798.13	–	–
[2], 288.15 K, x2 = 0.4978	826.3	–	–
[2], 288.15 K, x2 = 0.5983	859.19	–	–
[2], 288.15 K, x2 = 0.6976	897.72	–	–
[2], 288.15 K, x2 = 0.7982	944.58	–	–
[2], 288.15 K, x2 = 0.8985	1002.3	–	–
[2], 293.15 K, x2 = 0.05335	725.45	–	–
[2], 293.15 K, x2 = 0.1009	732.86	–	–
[2], 293.15 K, x2 = 0.1998	750.26	–	–
[2], 293.15 K, x2 = 0.2963	769.82	–	–
[2], 293.15 K, x2 = 0.3965	793.41	–	–
[2], 293.15 K, x2 = 0.4978	821.39	–	–
[2], 293.15 K, x2 = 0.5983	853.92	–	–
[2], 293.15 K, x2 = 0.6976	892.23	–	–
[2], 293.15 K, x2 = 0.7982	938.72	–	–
[2], 293.15 K, x2 = 0.8985	996.2	–	–
[2], 298.15 K, x2 = 0.05335	721.48	–	1198.5
[2], 298.15 K, x2 = 0.1009	728.79	–	1191.8
[2], 298.15 K, x2 = 0.1998	746.03	–	1180
[2], 298.15 K, x2 = 0.2963	765.4	–	1170.5
[2], 298.15 K, x2 = 0.3965	788.73	–	1162.4
[2], 298.15 K, x2 = 0.4978	816.45	–	1156.8
[2], 298.15 K, x2 = 0.5983	848.67	–	1153.4
[2], 298.15 K, x2 = 0.6976	886.73	–	1153.5
[2], 298.15 K, x2 = 0.7982	932.9	–	1158.2
[2], 298.15 K, x2 = 0.8985	990.1	–	1171.2
[2], 308.15 K, x2 = 0.05335	713.45	–	–
[2], 308.15 K, x2 = 0.1009	720.68	–	–
[2], 308.15 K, x2 = 0.1998	737.48	–	–
[2], 308.15 K, x2 = 0.2963	756.46	–	–
[2], 308.15 K, x2 = 0.3965	779.36	–	–
[2], 308.15 K, x2 = 0.4978	806.49	–	–
[2], 308.15 K, x2 = 0.5983	838.24	–	–
[2], 308.15 K, x2 = 0.6976	875.62	–	–
[2], 308.15 K, x2 = 0.7982	921.26	–	–
[2], 308.15 K, x2 = 0.8985	977.7	–	–
